Experimental data published in US9533972B2, “Substituted sodium-1H-pyrazole-5-olate” (Bayer Intellectual Property GmbH, priority 2010, dated 2017).

Key:
[1] = Vapour adsorption and vapour desorption (moisture sorption isotherm); type: physicochemical; conditions: 25° C.
Procedure: The moisture sorption isotherm was recorded using a Dynamic Vapour Sorption Analyzer IGA Sorp from Hiden Analytical. The measuring temperature was 25° C. There was no sample preparation.

[2] = system: recombinant A549 cell line with luciferase reporter under hypoxia-responsible elements; assay: Cellular, functional in vitro test (luciferase reporter under hypoxia-responsible elements); type: cell-based; conditions: Homo sapiens; A549-derived luciferase reporter cell line
Source text: The activity of the compounds according to the invention is quantified with the aid of a recombinant cell line. The cell is originally derived from a human lung carcinoma cell line (A549, ATCC: American Type Culture Collection, Manassas, Va. 20108, USA). The test cell line is transfected in a stable manner with a vector which contains the reporter gene of Photinus pyralis luciferase (called luciferase in the following) under the control of an artificial minimal promoter. The minimal promoter comprises two hypoxia-responsible elements upstream of a TATA box [Oehme F., Ellinghaus P., Kolkhof P., Smith T. J., Ramakrishnan S., Hatter J., Schramm M., Flamme I., Biochem. Biophys. Res. Commun. 296 (2), 343-9 (2002)]. Under the effect of hypoxia (e.g. culturing in the presence of 1% oxygen for 24 hours) or under the action of non-selective dioxygenase inhibitors (e.g. desferroxamine in a concentration of 100 μM, cobalt chloride in a concentration of 100 μM or N-oxalylglycine diethyl ester in a concentration of 1 mM), the test cell line produces luciferase, which can be detected and quantified with the aid of suitable bioluminescence reagents (e.g. Steady-Glo® Luciferase Assay System, Promega Corporation, Madison, Wis. 53711, USA) and a suitable luminometer. […]

[3] = Water uptake / hygroscopicity at customary environmental conditions; type: physicochemical
Procedure: The compound of the formula (I) is hygroscopic and, at customary environmental conditions (20-35° C., atmospheric pressure), takes up up to about 6% by weight of water even at a relative atmospheric humidity above 20% rh. At an atmospheric humidity of 30% rh, the uptake of 6% by weight of water is almost complete. If the atmospheric humidity decreases below 30% rh, the compound of the formula (I) releases part of the water it comprises. This uptake of water or release of water renders handling of the compound of the formula (I), for example weighing operations, and the production of the compound of the formula (I) in a uniform, stable and definined form for use in medicaments or the production of medicaments comprising compound of the formula (I) more difficult. In particular, this increases the technical expenditure during the production of administration forms comprising the compound of the formula (I), such as, for example, tablets, granules or drink solutions, since measures for controlling and regulating atmospheric humidity are required to maintain a uniform concentration of the compound of the formula (I). […]

[4] = Solubility in water; type: physicochemical; conditions: comparison in words
Procedure: Method: Saturated solutions of the test substance were prepared by stirring a suspension in water at 25° C. for 16 hours. The suspensions obtained were then filtered, and the content in the filtrate was determined by HPLC.

Row | Compound | Desorption ([1]; 5% rh) | EC50 [2] [µM] | Adsorption ([1]; 0% rh) [%] | Desorption ([1]; 0% rh) [%] | Adsorption ([1]; 10% rh) [%] | Desorption ([1]; 10% rh) [%] | Desorption ([1]; 20% rh) [%] | water comprised [3] | solubility in water compared to the compound of the formula (I) [4]
1 | Oc1c(-n2ccnn2)cnn1-c1cc(N2CCOCC2)ncn1 [Compound of the formula (I), 1-[6-(morpholin-4-yl)pyrimidin-4-yl]-4-(1H-1,2,3-triazol-1-yl)-1H-pyrazol-5-ol, reference compound] | 0.1% (5% rh) | – | – | – | – | – | – | – | –
2 | [Na+].[O-]c1c(-n2ccnn2)cnn1-c1cc(N2CCOCC2)ncn1 [Compound of the formula (II), sodium 1-[6-(morpholin-4-yl)pyrimidin-4-yl]-4-(1H-1,2,3-triazol-1-yl)-1H-pyrazol-5-olate] | – | 7 | 0 | 0 | 0 | 0 | 0 | less than 0.5 % by weight | higher solubility in water
